Assay [1] deals with T1, Testis-specific serine/threonine-protein kinase 1 (Homo sapiens) (UniProt Q9BXA7).
T1 sequence (whole entry): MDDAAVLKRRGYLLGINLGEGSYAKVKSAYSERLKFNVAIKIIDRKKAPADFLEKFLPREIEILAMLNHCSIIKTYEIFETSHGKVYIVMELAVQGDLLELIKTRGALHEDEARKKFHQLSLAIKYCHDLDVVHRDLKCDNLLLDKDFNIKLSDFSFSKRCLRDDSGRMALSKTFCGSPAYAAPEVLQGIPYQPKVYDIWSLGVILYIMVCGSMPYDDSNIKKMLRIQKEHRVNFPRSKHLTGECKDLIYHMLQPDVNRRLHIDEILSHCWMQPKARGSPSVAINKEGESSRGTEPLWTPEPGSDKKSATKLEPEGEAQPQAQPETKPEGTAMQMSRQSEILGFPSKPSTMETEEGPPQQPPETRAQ
The assay is described as follows: Selectivity interaction (ProQinase) EUB0000171b TSSK1A.

Assay [2] concerns the target Interleukin-1 receptor-associated kinase 1 (Homo sapiens) (UniProt P51617). The assay is described as follows: Selectivity interaction (KinomeScan (DiscoverX)) EUB0000655a IRAK1. As to conditions: at 10 µM.
For assay [3], the target named is Serine/threonine-protein kinase SIK3 (Homo sapiens) (UniProt Q9Y2K2). The assay can be described thus: Selectivity interaction (KinomeScan (DiscoverX)) EUB0000695a SIK3. As to conditions: at 100 nM.
The target in assay [4] is T2, Mitogen-activated protein kinase kinase kinase 6 (Homo sapiens) (UniProt O95382).
T2 sequence (whole entry): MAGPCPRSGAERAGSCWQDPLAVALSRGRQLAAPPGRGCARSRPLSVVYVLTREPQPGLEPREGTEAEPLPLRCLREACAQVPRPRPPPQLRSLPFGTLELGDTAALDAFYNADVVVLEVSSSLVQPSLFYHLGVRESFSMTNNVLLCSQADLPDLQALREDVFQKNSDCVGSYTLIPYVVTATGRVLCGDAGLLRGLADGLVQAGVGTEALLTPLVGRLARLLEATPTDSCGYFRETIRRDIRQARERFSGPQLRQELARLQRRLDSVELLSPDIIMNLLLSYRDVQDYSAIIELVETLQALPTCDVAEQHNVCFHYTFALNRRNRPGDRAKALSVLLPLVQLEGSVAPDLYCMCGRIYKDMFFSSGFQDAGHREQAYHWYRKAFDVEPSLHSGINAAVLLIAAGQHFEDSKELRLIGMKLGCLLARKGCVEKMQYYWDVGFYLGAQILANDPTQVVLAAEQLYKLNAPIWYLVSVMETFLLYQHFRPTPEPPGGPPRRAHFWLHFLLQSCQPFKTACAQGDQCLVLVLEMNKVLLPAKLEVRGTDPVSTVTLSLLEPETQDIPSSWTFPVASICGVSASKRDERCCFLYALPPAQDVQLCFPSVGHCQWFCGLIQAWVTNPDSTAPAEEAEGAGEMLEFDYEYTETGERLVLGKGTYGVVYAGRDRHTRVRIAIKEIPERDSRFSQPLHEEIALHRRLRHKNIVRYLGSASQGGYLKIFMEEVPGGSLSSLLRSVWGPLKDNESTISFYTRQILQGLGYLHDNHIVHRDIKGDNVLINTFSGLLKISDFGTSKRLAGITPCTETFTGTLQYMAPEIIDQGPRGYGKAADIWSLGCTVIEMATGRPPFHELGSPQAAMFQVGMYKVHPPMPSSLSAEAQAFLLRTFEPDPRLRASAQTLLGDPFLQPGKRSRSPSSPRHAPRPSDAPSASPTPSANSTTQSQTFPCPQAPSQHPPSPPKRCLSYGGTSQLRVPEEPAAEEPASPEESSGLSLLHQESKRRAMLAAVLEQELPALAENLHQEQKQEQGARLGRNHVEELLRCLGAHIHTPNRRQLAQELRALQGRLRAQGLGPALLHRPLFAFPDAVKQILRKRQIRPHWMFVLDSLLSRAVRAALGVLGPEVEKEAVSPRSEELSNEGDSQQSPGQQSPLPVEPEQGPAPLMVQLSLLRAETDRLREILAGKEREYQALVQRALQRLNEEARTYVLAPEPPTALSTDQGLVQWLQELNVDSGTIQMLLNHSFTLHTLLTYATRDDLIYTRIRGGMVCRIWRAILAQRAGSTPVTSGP
The assay is described as follows: Selectivity interaction (KinomeScan (DiscoverX)) EUB0000045b MAP3K6.

The target of assay [5] is Phosphatidylinositol 4,5-bisphosphate 3-kinase catalytic subunit gamma isoform (Homo sapiens) (UniProt P48736). The assay can be described thus: Selectivity interaction (KinomeScan (DiscoverX)) EUB0000045b PIK3CG. As to conditions: at 1 µM.
Assay [6] deals with Mitogen-activated protein kinase kinase kinase kinase 1 (Homo sapiens) (UniProt Q92918). The assay is described as follows: Selectivity interaction (ActivX KiNativ screen (kinase selectivity in THP-1 cell lysates)) EUB0000639a MAP4K1. The class given is subcellular. As to conditions: lysate, at 1 µM.
Assay [7] has as its target T3, Mitogen-activated protein kinase 12 (Homo sapiens) (UniProt P53778).
T3 sequence (whole entry): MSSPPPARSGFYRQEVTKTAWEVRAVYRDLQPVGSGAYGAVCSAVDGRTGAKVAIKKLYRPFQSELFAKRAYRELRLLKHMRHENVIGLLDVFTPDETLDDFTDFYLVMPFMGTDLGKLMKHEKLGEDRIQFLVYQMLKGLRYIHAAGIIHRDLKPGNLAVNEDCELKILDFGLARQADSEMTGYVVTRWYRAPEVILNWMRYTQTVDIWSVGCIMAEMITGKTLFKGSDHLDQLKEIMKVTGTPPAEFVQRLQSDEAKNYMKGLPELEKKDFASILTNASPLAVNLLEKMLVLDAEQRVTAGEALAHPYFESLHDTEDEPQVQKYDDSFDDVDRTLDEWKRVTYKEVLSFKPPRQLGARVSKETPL
The assay is described as follows: Selectivity interaction (KinomeScan (DiscoverX)) EUB0000595a MAPK12. As to conditions: at 10 µM.

Mitogen-activated protein kinase kinase kinase kinase 1 (Homo sapiens), sequence (Q92918 whole entry, looked up): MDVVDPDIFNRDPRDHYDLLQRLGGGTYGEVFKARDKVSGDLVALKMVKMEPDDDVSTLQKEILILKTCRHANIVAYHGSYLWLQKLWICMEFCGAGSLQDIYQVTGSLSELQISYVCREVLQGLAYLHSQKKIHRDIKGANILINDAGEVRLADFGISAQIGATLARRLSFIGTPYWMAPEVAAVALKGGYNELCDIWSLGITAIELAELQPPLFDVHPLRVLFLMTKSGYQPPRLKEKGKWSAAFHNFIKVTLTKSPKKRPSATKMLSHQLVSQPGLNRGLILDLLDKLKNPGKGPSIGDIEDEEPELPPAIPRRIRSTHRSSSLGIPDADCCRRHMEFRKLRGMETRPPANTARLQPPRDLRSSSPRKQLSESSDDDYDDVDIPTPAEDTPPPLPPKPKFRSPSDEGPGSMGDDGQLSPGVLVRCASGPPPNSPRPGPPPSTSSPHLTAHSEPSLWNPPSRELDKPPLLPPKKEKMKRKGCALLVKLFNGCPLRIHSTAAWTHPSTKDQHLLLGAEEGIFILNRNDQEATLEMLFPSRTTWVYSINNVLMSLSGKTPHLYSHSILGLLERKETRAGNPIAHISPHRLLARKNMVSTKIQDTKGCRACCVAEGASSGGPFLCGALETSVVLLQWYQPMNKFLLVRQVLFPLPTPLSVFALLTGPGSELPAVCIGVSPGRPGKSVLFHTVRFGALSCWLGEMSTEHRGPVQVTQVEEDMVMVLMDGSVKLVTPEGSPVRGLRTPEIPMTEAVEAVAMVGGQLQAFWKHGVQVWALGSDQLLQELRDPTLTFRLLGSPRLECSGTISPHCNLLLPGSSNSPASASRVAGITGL
Serine/threonine-protein kinase SIK3 (Homo sapiens), sequence (Q9Y2K2 whole entry, looked up): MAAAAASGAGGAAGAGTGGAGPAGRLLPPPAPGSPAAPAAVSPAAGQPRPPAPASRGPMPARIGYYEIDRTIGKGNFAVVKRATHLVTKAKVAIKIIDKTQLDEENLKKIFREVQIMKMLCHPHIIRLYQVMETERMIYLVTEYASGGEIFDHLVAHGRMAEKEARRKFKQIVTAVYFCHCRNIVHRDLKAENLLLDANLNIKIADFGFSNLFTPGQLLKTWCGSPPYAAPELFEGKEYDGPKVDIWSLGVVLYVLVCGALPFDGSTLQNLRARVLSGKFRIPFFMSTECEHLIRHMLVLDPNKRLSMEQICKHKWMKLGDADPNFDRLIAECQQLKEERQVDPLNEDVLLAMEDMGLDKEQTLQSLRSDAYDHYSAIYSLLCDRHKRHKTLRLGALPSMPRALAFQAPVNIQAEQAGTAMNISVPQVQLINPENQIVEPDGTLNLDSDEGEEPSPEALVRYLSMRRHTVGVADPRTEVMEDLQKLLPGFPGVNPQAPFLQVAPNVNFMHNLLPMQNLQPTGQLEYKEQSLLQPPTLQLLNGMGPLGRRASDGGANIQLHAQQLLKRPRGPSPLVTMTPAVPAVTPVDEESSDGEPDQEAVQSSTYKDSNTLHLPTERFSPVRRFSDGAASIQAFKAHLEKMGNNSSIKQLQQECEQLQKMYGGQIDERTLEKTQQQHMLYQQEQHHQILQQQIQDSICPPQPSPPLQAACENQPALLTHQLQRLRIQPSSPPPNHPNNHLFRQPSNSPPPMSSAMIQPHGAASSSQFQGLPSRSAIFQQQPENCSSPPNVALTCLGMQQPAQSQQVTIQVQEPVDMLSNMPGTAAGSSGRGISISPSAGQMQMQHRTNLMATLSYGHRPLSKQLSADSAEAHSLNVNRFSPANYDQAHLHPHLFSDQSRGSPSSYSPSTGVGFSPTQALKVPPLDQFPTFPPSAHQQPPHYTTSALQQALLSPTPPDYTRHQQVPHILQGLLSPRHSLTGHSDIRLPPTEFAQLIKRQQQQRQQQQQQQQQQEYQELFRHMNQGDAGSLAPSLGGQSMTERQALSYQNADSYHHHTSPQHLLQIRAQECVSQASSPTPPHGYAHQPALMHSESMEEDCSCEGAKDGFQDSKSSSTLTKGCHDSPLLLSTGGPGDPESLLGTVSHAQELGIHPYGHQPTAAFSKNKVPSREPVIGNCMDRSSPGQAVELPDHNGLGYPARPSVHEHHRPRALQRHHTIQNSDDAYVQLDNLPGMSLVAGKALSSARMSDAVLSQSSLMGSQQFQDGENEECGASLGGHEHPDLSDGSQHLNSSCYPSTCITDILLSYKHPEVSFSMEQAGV
Phosphatidylinositol 4,5-bisphosphate 3-kinase catalytic subunit gamma isoform (Homo sapiens), sequence (P48736 whole entry, looked up, canonical isoform): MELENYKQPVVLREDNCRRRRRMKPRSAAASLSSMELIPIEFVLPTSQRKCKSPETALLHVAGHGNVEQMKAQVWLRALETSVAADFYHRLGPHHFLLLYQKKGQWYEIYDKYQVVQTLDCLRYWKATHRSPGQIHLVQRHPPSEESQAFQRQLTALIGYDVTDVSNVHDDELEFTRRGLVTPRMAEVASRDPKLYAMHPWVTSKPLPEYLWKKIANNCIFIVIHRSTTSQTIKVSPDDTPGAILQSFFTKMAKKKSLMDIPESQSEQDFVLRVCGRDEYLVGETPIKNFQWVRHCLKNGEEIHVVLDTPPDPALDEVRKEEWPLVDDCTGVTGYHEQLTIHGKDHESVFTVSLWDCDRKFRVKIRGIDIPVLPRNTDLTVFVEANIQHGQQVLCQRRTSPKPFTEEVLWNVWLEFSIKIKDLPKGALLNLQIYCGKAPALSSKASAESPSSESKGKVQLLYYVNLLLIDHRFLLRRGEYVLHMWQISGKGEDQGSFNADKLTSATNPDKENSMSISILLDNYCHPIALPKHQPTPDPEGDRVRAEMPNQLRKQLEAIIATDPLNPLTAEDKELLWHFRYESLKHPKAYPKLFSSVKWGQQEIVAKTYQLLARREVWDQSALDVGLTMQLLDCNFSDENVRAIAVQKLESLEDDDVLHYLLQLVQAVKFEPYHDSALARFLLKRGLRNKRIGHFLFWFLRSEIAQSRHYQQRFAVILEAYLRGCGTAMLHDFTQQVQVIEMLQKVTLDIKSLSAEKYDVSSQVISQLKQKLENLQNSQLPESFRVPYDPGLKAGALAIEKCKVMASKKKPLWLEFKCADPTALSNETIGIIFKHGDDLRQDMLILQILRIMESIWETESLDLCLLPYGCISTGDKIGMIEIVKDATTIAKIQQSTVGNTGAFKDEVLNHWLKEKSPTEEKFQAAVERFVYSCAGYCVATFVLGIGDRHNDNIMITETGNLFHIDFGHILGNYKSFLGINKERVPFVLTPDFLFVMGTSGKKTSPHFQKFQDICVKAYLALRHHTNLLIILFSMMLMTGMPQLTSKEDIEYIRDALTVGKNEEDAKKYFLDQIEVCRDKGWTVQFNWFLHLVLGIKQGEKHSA
Interleukin-1 receptor-associated kinase 1 (Homo sapiens), sequence (P51617 whole entry, looked up): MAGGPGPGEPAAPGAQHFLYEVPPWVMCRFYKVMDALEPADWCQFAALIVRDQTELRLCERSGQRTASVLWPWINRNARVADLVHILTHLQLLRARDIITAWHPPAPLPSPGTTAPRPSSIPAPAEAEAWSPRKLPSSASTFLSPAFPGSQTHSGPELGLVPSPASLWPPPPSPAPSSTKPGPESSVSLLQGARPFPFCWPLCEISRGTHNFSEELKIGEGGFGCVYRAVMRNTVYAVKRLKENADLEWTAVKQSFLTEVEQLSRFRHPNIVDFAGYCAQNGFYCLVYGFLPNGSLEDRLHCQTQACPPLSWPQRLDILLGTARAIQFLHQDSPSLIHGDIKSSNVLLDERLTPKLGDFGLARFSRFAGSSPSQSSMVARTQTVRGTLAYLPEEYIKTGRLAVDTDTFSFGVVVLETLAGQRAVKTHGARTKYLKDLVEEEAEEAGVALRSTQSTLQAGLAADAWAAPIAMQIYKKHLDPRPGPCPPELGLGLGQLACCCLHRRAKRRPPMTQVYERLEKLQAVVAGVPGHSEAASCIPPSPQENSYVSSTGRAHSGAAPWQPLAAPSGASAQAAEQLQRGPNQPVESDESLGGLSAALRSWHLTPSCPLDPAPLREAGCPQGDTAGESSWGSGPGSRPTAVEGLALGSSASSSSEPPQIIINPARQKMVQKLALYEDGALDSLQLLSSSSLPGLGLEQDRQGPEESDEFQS

On to `C=CC(=O)Nc1cccc(C(=O)Nc2ccc(Nc3cc(-c4[nH]c(SC)nc4C)ccn3)cc2)c1`, for which the % of control was found to be 76% in assay [1] (at 1 µM) and 72% in assay [1] (at 5 µM).

Regarding `CN(C)CCOc1ccc(-c2nc(-c3ccncc3)c(-c3ccc4c(c3)CC/C4=N\O)[nH]2)cc1`, the % of control in assay [2] was found to be 16%.

For `Cc1cc(F)c(C(=O)Nc2cccc(-c3nncn3C(C)C)n2)cc1-n1cnc(C2CC2)c1`, the % of control in assay [3] amounted to 100%.

Take `C=CC(=O)Nc1cc(-n2c(=O)ccc3cnc4ccc(-c5ccc(NS(C)(=O)=O)cc5)cc4c32)ccc1C`: the % of control in assay [4] (at 1 µM) was found to be 100%; in assay [4] (at 10 µM), 100%; in assay [5], 2.8%.

For `CC[C@@H]1[C@H](F)C(=O)N[C@@H]1COc1nccc2cc(C(N)=O)c(OC)cc12` [ZIMLOVISERTIB], the % of inhibition in assay [6] was -17.4%.

For `COCC(=O)NC/C=C/c1ccc2ncnc(Nc3ccc(Oc4ccc(C)nc4)c(C)c3)c2c1` [CP-724714], the % of control in assay [7] worked out at 100%.

The values above are taken from ChEMBL document CHEMBL5465560, “Selectivity Literature for EUbOPEN Chemogenomic Library” (2024).
